One assay deals with Drosophila fruit flies. As to conditions: in vivo.
The test system of assay [1] is imidazoline receptors of all subtypes. The conditions noted are these: cited from earlier work.

SMILES strings stand for the structures.

On to `Cc1cc(C)c2c(c1)nc(Cn1c3ccccc3c(=O)c3ccccc31)n2C` [XVg], for which, in the assay on Drosophila fruit flies, the “MLS (day) Females” value came to 67 ± 9 days, the “MLS (day) Males” value was determined as 66 ± 9 days, the “extension of lifespan / MLS versus control” value was about 3 fold and the “lifespan of Drosophila extended to” value amounted to 70 days.
For `N=C(N)NCCCCN` [Agmatine, N-(4-aminobutyl)guanidine], in assay [1], the “concentration range of binding to imidazoline receptors” value was 0.5 to 5 mM.
